Test results published in US9371330B2, “Substituted pyrazino[1,2-a]pyrimidines useful as CBP/catenin antagonists for enhancing asymmetric division of somatic stem cells” (University of Southern California, priority 2011, dated 2016).

Tests used:
[1] = test system: bleomycin-induced pulmonary fibrosis; assay: bleomycin-induced lung injury / pulmonary fibrosis; format: in vivo, mouse
Text: The well-characterized model of bleomycin-induced lung injury has been extensively used to investigate potential pathways involved in the pathogenesis of pulmonary fibrosis and to explore therapeutic approaches.

PC-12 cells = PC-12 cells with FAD mutant PS-1 (L286V): neuronal differentiation; format: cell-based
Text: However, the effects of PS-1 mutations on the stability of beta-catenin, TCF/beta-catenin signaling, and thereby its potential role in AD remain controversial. Applicant has shown that introduction of a FAD mutant PS-1 (L286V) into PC-12 cells causes increased TCF/beta-catenin signaling, leading to the inhibition of neurite outgrowth. […] In the CNS, EpB2 expression is associated with axonal guidance (16). […] In initial in vivo studies, applicant treated penta-transgenic mice that over express mutant APP(695) (Swedish (K670N,M671L), Florida ([…]) and London (V717I)) and PS-1 (M146L and L286V) mutations with ICG-001 for 2 months (months 2-4). These mice normally develop massive cerebral deposition of Aβ starting at 6 weeks of age.

With O=C1[C@H](Cc2ccc(O)cc2)N2C(=O)CCN(C(=O)NCc3ccccc3)[C@H]2CN1Cc1cccc2ccccc12 [ICG-001] the “bleomycin-induced lacZ expression in airway and alveolar epithelium” value ([1]; BAT-gal transgenic mice) was “significantly reduced”, the “expression of S100A4/FSP-1” value ([1]; bleomycin model in vivo in the mouse and fibroblasts from IPF patients in vitro) was “significantly decreased the expression of S100A4/FSP-1” and the established fibrosis ([1]; mouse, in vivo) was “could reverse established fibrosis”. The “severity of pulmonary fibrosis” value ([1]; pretreatment) was “significantly reduced the severity of pulmonary fibrosis”, the GAP43 expression (PC-12 cells; NGF-induced differentiation, vs untreated cells) was “dramatically increased” and the “neuronal differentiation and neurite outgrowth” value (PC-12 cells; PS-1 (L286V) mutant cells) was “rescues the defects in neuronal differentiation and neurite outgrowth”.
